Experimental data as given in patent US10183950B2, “Thienopyrimidine inhibitors of atypical protein kinase C” (Cancer Research Technology Limited, priority 2011, dated 2019).
Where two headings read alike, the source gives them in different places.

Target: T1, kinase-domain human PKCι (Homo sapiens, UniProt P41743)
T1 construct: Recombinant, kinase-domain human PKCι is expressed and purified in-house; made in house
T1 sequence (P41743 254-522 limits assumed): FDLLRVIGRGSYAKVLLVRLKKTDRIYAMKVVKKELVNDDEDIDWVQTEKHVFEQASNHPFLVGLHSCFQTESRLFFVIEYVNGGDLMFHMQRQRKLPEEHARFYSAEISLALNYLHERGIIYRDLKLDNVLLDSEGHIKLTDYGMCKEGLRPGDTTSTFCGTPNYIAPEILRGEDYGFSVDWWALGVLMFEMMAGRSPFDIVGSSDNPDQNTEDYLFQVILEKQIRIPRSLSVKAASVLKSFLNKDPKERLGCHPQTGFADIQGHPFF
Test: PKCι IC50 IMAP fluorescence polarisation assay, kinase-domain enzyme
Type: biochemical
Conditions: kinase domain PKCi at 2 μM ATP

[1] = read-out: IC50 in IMAP assay against kinase domain PKCi (Activity)
[2] = read-out: IC50 in IMAP assay against kinase domain PKCi

| SMILES | IC50 [1] [nM] | IC50 [2] [nM] |
| --- | --- | --- |
| C[C@@H](N)CNc1nc(-c2ccncc2)nc2sc3c(c12)CCCCCC3 [compound 26, (R)-N*1*-(2-Pyridin-4-yl-5,6,7,8,9, 10-hexahydro-11-thia-1,3-diaza-cycloocta[a]inden-4-yl)-propane-1,2-diamine] | 1000 to 10000 |  |
| Cc1cc(C)c2c(n1)sc1c(NC[C@H](C)N)nc(-c3ccncc3)nc12 [compound 382, (S)-N*1*-(7,9-Dimethyl-2-pyridin-4-yl-pyrido[3′,2′:4,5]thieno[3,2-d]pyrimidin-4-yl)-propane-1,2-diamine] |  | 100 to 1000 |
| N[C@H]1C[C@@H]1Nc1nc(-c2ccncc2)nc2sc3c(c12)CCCC3 [compound 11, (1S,2S)-N-(2-Pyridin-4-yl-5,6,7,8-tetrahydro-benzo[4,5]thieno[2,3-d]pyrimidin-4-yl)-cyclopropane-1,2-diamine] | 10000 to 40000 |  |
| Cc1c(C(N)=O)sc2nc(-c3ccncc3)nc(NC[C@@H](N)Cc3ccccc3)c12 [compound 74, 4-((S)-2-Amino-3-phenyl-propylamino)-5-methyl-2-pyridin-4-yl-thieno[2,3-d]pyrimidine-6-carboxylic acid amide] | 100 to 1000 |  |
| NCCNc1nc(-c2ccncc2F)nc2sc3c(c12)CCCC3 [compound 97, N*1*-[2-(3-fluoro-pyridin-4-yl)-5,6,7,8-tetrahydro-benzo[4,5]thieno [2,3-d]pyrimidin-4-yl]-ethane-1,2-diamine] | 1000 to 10000 |  |
| CC[C@H](N)CNc1nc(-c2ccncc2)nc2sc3c(c12)CCCC3 [compound 68, (S)-N*1*-(2-Pyridin-4-yl-5,6,7,8-tetrahydro-benzo[4,5]thieno[2,3-d]pyrimidin-4-yl)-butane-1,2-diamine] | 1000 to 10000 |  |
| Cc1csc2c(NC[C@@H](N)Cc3ccccc3)nc(-c3ccncc3)nc12 [compound 302] | < 100 |  |
| N[C@H](CNc1nc(-c2ccncc2)nc2c1sc1cccc(Cl)c12)Cc1ccccc1 [compound 372, (S)-N*1*-(9-Chloro-2-pyridin-4-yl-benzo[4,5]thieno[3,2-d]pyrimidin-4-yl)-3-phenyl-propane-1,2-diamine] |  | 100 to 1000 |
| c1ccc(CN2CCN(c3nc(-c4ccncc4)nc4sc5c(c34)CCCC5)CC2)cc1 [compound 116, 4-(4-Benzyl-piperazin-1-yl)-2-pyridin-4-yl-5,6,7,8-tetrahydro-benzo[4,5]thieno[2,3-d]pyrimidine] | 10000 to 40000 |  |
| CN1CCN(c2nc(-c3ccncc3)nc3sc4c(c23)CCCC4)CC1 [compound 125, 4-(4-Methyl-piperazin-1-yl)-2-pyridin-4-yl-5,6,7,8-tetrahydro-benzo[4,5]thieno[2,3-d]pyrimidine] | 1000 to 10000 |  |
| CNCCNc1nc(-c2ccncc2)nc2sc3c(c12)CCCC3 [compound 13, N-Methyl-N′-(2-pyridin-4-yl-5,6,7,8-tetrahydro-benzo[4,5]thieno[2,3-d]pyrimidin-4-yl)-ethane-1,2-diamine] | 100 to 1000 |  |
| CCN1CCN(c2nc(-c3ccncc3)nc3sc4c(c23)CCCC4)CC1 [compound 119, 4-(4-Ethyl-piperazin-1-yl)-2-pyridin-4-yl-5,6,7,8-tetrahydro-benzo[4,5]thieno[2,3-d]pyrimidine] | 1000 to 10000 |  |
| CC(C)c1cc2c(NCCN)nc(-c3ccncc3)nc2s1 [compound 40, N*1*-(6-Isopropyl-2-pyridin-4-yl-thieno[2,3-d]pyrimidin-4-yl)-ethane-1,2-diamine] | 1000 to 10000 |  |
| c1cc(-c2nc(N3C[C@@H]4C[C@H]3CN4)c3c4c(sc3n2)CCCC4)ccn1 [compound 18, 4-(1S,4S)-2,5-Diaza-bicyclo[2.2.1]hept-2-yl-2-pyridin-4-yl-5,6,7,8-tetrahydro-benzo[4,5]thieno[2,3-d]pyrimidine] | 100 to 1000 |  |
